The values below come from patent US6376521B1, “A3 adenosine receptor antagonists” (The United States of America as represented by the …, priority 1998, dated 2002).

Test [1] concerns the target T1, A2A adenosine receptors (Rattus norvegicus, UniProt P30543).
T1 construct: from tissue
The conditions noted are these: Table 3, cited from earlier work; for Ki: compounds 59, 68, values taken from van Rhee et al. 1996 and Jiang et al. 1997, read-out: rA2A Ki ± S.E.M.

The target in another test is T2, human A3 receptors (Homo sapiens, UniProt P0DMS8).
T2 construct: expressed in transfected cells
T2 sequence (P0DMS8 1-318): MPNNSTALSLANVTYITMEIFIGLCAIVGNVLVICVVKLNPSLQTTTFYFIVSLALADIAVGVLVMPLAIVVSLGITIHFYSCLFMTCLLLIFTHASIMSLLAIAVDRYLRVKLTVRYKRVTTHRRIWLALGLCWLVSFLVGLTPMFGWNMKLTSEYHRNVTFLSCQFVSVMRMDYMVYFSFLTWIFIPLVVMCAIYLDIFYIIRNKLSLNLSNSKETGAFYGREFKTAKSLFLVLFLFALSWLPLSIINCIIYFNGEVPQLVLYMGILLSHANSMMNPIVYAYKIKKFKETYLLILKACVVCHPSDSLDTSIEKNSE
As to the kind of experiment: Displacement of specific [125I]AB-MECA binding at human A3 receptors expressed in HEK cells, in membranes. The conditions noted are these: for Ki: [125I]AB-MECA, HEK cell membranes, n = 3-4, read-out: hA3 Ki ± S.E.M.; for rA1/hA3: ratio of affinities rat A1 vs human A3.

For test [2], the target named is T1, A2A adenosine receptors. As to the kind of experiment: Displacement of specific [3H]CGS 21680 binding in rat striatal membranes. The following applies: [3H]CGS 21680, rat striatal membranes, n = 3-6, read-out: rA2A Ki ± S.E.M.
For the next test, the target named is T3, rat A3 receptors (Rattus norvegicus, UniProt P28647).
T3 construct: expressed in transfected cells
T3 sequence (P28647 1-320): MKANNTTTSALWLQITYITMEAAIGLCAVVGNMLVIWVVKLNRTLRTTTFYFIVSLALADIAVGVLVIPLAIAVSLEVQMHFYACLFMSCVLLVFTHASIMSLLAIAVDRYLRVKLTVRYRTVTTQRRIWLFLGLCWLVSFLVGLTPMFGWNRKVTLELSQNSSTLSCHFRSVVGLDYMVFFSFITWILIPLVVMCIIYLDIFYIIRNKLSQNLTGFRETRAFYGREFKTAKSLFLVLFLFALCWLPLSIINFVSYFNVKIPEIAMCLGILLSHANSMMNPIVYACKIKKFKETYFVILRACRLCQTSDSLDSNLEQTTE
The test can be described thus: Displacement of specific [125I]AB-MECA binding at rat A3 receptors stably expressed in CHO cells. The following applies: Table 4; for Ki: [125I]AB-MECA, CHO cells, n = 3-5, read-out: rA3 Ki; for rA3/hA3: ratio of affinities at rat vs. human A3 receptors; for rA1/rA3: ratio of affinities rat A1 vs rat A3.

The target in a further test is T4, A1 adenosine receptors (Rattus norvegicus, UniProt P25099).
T4 construct: from tissue
T4 sequence (P25099 1-326): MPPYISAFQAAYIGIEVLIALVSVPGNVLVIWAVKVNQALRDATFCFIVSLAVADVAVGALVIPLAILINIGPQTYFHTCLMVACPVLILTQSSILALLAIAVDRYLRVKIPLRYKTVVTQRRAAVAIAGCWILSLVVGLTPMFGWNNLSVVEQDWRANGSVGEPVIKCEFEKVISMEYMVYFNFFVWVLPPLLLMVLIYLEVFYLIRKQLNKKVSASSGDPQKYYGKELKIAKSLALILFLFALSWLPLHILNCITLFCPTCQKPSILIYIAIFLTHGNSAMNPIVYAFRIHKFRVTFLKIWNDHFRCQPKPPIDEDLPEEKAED
The test can be described thus: Displacement of specific [3H]R-PIA binding in rat brain membranes. The conditions noted are these: at 10^−4 M; for rA1 percentage of specific binding displaced: Table 2.

Structures are written as SMILES. Where two headings read alike, the source gives them in different places.

T1 sequence (P30543 whole entry): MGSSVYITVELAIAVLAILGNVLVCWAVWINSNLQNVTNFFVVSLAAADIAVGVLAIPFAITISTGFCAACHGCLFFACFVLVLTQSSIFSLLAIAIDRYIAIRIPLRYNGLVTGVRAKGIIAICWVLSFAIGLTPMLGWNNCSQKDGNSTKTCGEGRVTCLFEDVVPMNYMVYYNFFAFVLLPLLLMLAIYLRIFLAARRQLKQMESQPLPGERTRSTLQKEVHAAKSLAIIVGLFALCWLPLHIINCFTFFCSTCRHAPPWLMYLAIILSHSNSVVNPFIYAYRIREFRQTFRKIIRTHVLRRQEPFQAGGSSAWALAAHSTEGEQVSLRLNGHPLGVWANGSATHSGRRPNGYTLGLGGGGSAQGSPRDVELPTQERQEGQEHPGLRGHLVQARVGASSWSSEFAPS

For `CCOC(=O)C1=C(C)NC(c2ccccc2)=C(C(=O)OCc2ccccc2)C1C#Cc1ccccc1` (stereo not drawn) [Compound 69], the “rA2A displacement of specific binding (class d)” value on A2A adenosine receptors [1] (at 10^−4 M, compound 69, value taken from the literature) is “d (10^−4) (Displacement of < 10% of specific binding at the indicated concentration (M).)”.
In the case of `CCOC(=O)C1=C(C)NC(c2ccccc2)=C(C(=O)OCC)C1C` (stereo not drawn) [Compound 59], the Ki on A2A adenosine receptors [1] is 35.9 ± 15.3 µM.
Consider `CCSC(=O)c1c(C)nc(-c2ccccc2)c(C(=O)OCc2ccccc2)c1CC` [Compound 39, 5-Benzyl 2-methyl-4-ethyl-3-(ethylsulfanylcarbonyl)-6-phenylpyridine-5-carboxylate], for which, on human A3 receptors (Table 2, compounds 33-58), the Ki worked out at 2.61 ± 0.96 µM. Also, the rA1/hA3 on human A3 receptors (Table 2) is reported as greater than 40. In addition, the Ki at A2A adenosine receptors [2] (Table 2, compounds 33-58) is 12.8 ± 2.9 µM. At rat A3 receptors, the inhibition constant (Ki) turned out to be 1.8 ± 0.32 µM, the rA3/hA3 came to 0.69 and the rA1/rA3 is given as greater than 50. On A1 adenosine receptors, the “rA1 percentage of specific binding displaced” value was 20 ± 8% (10^−4).
As for `CCOC(=O)C1=C(c2ccccc2)NC(CC)=C(C(=O)SCC)C1CC` (racemic) [Compound 75, 5-Ethyl 2,4-diethyl-6-phenyl-3-(ethylsulfanylcarbonyl)-1,4-(±)-dihydropyridine-5-carboxylate], on human A3 receptors (Table 3), the Ki amounted to 0.907 ± 0.044 µM and the rA1/hA3 is greater than 50. Also, the Ki at A2A adenosine receptors [2] (Table 3) was determined as 29.1 ± 9.9 µM. At rat A3 receptors, the Ki turned out to be 2.52 ± 0.88 µM, the rA3/hA3 was found to be 2.8 and the rA1/rA3 is greater than 30. For the same compound, the inhibition at 100 µM on A1 adenosine receptors (Table 3, read-out: rA1 % inhibition (percentage of specific binding displaced)) was found to be 34 ± 7%.
With `CCOC(=O)c1c(-c2ccccc2)nc(CC)c(C(=O)SCC)c1CC` [Compound 48, 5-Ethyl 2,4-diethyl-3-(ethylsulfanylcarbonyl)-6-phenylpyridine-5-carboxylate], at human A3 receptors (Table 2, compounds 33-58), the inhibition constant (Ki) amounted to 0.02 ± 0.0019 µM. The rA1/hA3 on human A3 receptors (Table 2) is recorded as greater than 3000. For the same compound, the inhibition constant Ki on A2A adenosine receptors [2] (Table 2, compounds 33-58) turned out to be 6.13 ± 1.28 µM. At rat A3 receptors, the Ki was found to be 0.41 ± 0.048 µM, the rA3/hA3 is 21 and the rA1/rA3 is recorded as greater than 100. The “rA1 percentage of specific binding displaced” value at A1 adenosine receptors is 41 ± 6% (10^−4).
As for `CCOC(=O)C1=C(C)NC(c2ccccc2)=C(C(=O)OCC)C1C=Cc1ccccc1` (stereo not drawn) [Compound 68], the Ki at A2A adenosine receptors [1] was 4.77 ± 0.29 µM.
